# Data from patent publication US20240237646A1, “METHODS OF DECREASING PLANT INJURY AND IMPROVING CROP YIELD” (priority 2023, published 2024).
# Experiments:
# [1] = system: creeping bentgrass (Agrostis palustris) turf; settings: 6 applications every two weeks, 8 visual ratings combined, trinexapac-ethyl 514, paclobutrazol 280, prohexadione-calcium 154, flurprimidol 15 g ai/ha, B Sure 19,091 ml/ha in mixtures
# From the text: Each plant growth regulator (PGR) combination was applied in 2 gallons of water per 1,000 square feet and applications were made 6 times with application intervals every two weeks. Visual injury was rated 8 times between June 8th and August 11th on a percent scale from 0 to 100 where 0 equals no visual response and 100 equals complete plant death.
# [2] = system: genetically modified (GMO) soybeans engineered to resist 2,4-D; test: Study, B Sure + herbicides in GMO soybeans (canopy rating); assay type: in vivo, soybean; settings: lactofen 218, 2,4-D choline 1064, chlorimuron 13 g ai/ha; for Canopy rating relative to % ground cover: GMO soybeans V3-R1, B Sure 1 pt/A in mixtures, larger = greater crop vigor; for % Increase in soybean canopy measure with B Sure ® added: herbicide + B Sure 1 pt/A compared to the herbicide applied alone
# From the text: Treatments included 1) B Sure® 1 pt/A; 2) Lactofen 218 g ai/ha; 3) Lactofen 218 g ai/ha+B Sure® 1 pt/A; 4) 2,4-D choline 1064 g ai/ha; 5) 2,4-D choline 1064 g ai/ha+B Sure® 1 pt/A; 6) chlorimuron 13 g ai/ha; 7) chlorimuron 13 g ai/ha+B Sure® 1 pt/A. Adjuvants applied varied by treatment and were consistent with product label recommendations. A preemergence herbicide was applied to all treatments in order to reduce competition from weed species that would increase variability in the study. A canopy rating was made which evaluated the % ground cover differences of the soybeans associated with the various treatments. In these measurements, the larger ground cover number represents a greater amount of soybean leaf tissue which represents greater crop vigor and overall soybean health.
# [3] = system: genetically modified (GM) soybeans (Enlist E3® soybeans); test: Four field studies, B Sure + lactofen or 2,4-D in GM soybeans (yield); assay type: in vivo, Glycine max; settings: for Yield (bushels/acre): lactofen 210 g ai/ha, 2,4-D choline salt 2,527 g ai/ha, check 62.2
# Description: Four field studies were conducted in 2023 in the states of Ohio, Nebraska, Indiana, and Illinois to determine the influence of the “HYT plant ameliorant” B Sure® at 1,170 mls/ha on soybean (Glycine max) yield when applied in combinations with the herbicides lactofen at 210 g ai/ha and 2,4-D (as its choline salt) at 2,527 g ai/ha on genetically modified (GM) soybeans (Enlist E3® soybeans) created to tolerate applications of 2,4-D, glufosinate, and glyphosate. Treatments were applied using a water carrier with crop oil concentrate added to all treatments at 1% v/v and ammonium sulfate at 2.24 kg/ha added to herbicide containing treatments. Yields were adjusted to constant moisture and recorded in bushels/acre. […] All plots were maintained weed free.
# [4] = system: soybeans (Glycine max); settings: fomesafen 350 g ai/ha alone
# From the text: The study was arranged in a randomized complete block design with 6 replicates in conventionally tilled soybeans (Glycine max).
# Herbicides were applied in a water carrier of 20 gallons per acre and treatments were applied at first flower (V5/R1). All fomesafen treatments contained an adjuvant system of 1% v/v crop oil concentrate and 2.5% v/v urea ammonium nitrate as is consistent with product label instructions.
# [5] = system: creeping bentgrass (Agrostis stolonifera); test: Field study, B Sure + PCNB on creeping bentgrass (visual injury); settings: PCNB 227 g ai/1,000 sq ft, B Sure 6 fl oz/1,000 sq ft in the mixture
# From the text: PCNB was applied at 227 g ai/per 1,000 square feet. […] Treatments were applied on July 14th using an application volume of 2 gallons per 1,000 square feet. Creeping bentgrass injury ratings were made five times corresponding to 3, 7, 10, 14 and 28 days after application (DAA).
# [6] = system: cotton (Gossypium hirsutum); test: Six field studies, B Sure + trifloxysulfuron in cotton (visual injury); assay type: in vivo; settings: trifloxysulfuron 8 g ai/ha alone, rated 2 to 3 weeks after application
# From the text: The studies were arranged in a randomized complete block design with 4 replicates in conventionally tilled cotton. Evaluations were combined over locations and plots were maintained weed free over the duration of the trial.
# Herbicides were applied in a water carrier to cotton at three separate stages of growth: 1) cotyledon-2 leaf; 2) 3-4 leaf; and 3) 5 leaf or greater. All trifloxysulfuron treatments contained a nonionic surfactant at 0.25% v/v as is consistent with product label instructions. Treatments included in the trial were the following: 1) trifloxysulfuron 8 g ai/ha-cotyledon-2 leaf cotton; 2) trifloxysulfuron 8 g ai/ha+B Sure® 1,170 mls/ha-cotyledon-2 leaf cotton; 3) trifloxysulfuron 8 g ai/ha+B Sure® 2 pint/acre-cotyledon-2 leaf cotton; 4) trifloxysulfuron 8 g ai/ha-3-4 leaf cotton, 5) trifloxysulfuron 8 g ai/ha+B Sure® 1,170 mls/ha-3-4 leaf cotton; 6) trifloxysulfuron 8 g ai/ha+B Sure® 2,340 mls/ha-3-4 leaf cotton; 7) trifloxysulfuron 8 g ai/ha-5 leaf or greater cotton, 8) trifloxysulfuron 8 g ai/ha+B Sure® 1,170 mls/ha-5 leaf or greater cotton; 9) trifloxysulfuron 8 g ai/ha+B Sure® 2, 340 mls/ha-5 leaf or greater cotton; 10) Check.
molecule,measurement,setting,value
CC(C)(C)[C@@H](O)[C@@H](Cc1ccc(Cl)cc1)n1cncn1 (racemic) [Paclobutrazol],% Phytotoxicity,[1],10%
"C[N+](C)(C)CCO.O=C([O-])COc1ccc(Cl)cc1Cl [2,4-D Choline, 2,4-D choline salt]",Canopy rating relative to % ground cover,[2],6.18
same,% Increase in soybean canopy measure with B Sure ® added,[2],12.9%
same,soybean yield increase over the check,"[3]; B Sure 1,170 mls/ha, lactofen 210 g ai/ha, 2,4-D 2,527 g ai/ha",3.1 bushels/acre
same,Yield (bushels/acre),"[3]; B Sure 1,170 mls/ha",65.3 bushels/acre
"COc1cc(Cl)nc(NC(=O)NS(=O)(=O)c2ccccc2C(=O)O)n1 [Chlorimuron, chlorimuron]",Canopy rating relative to % ground cover,[2],6.25
same,% Increase in soybean canopy measure with B Sure ® added,[2],10.9%
"CS(=O)(=O)NC(=O)c1cc(Oc2ccc(C(F)(F)F)cc2Cl)ccc1[N+](=O)[O-] [Fomesafen, fomesafen]",Soybean Yield (% increase over untreated check),[4],4.6%
same,% Injury,"[4]; soybean, applied at V5/R1, visual scale 0-100",7%
"CCOC(=O)C(C)OC(=O)c1cc(Oc2ccc(C(F)(F)F)cc2Cl)ccc1[N+](=O)[O-] (centres unmarked) [Lactofen, lactofen]",Canopy rating relative to % ground cover,[2],2.99
same,% Increase in soybean canopy measure with B Sure ® added,[2],7.4%
same,Yield (bushels/acre),"[3]; B Sure 1,170 mls/ha",61.5 bushels/acre
same,soybean yield reduction over the untreated check,[3]; lactofen 210 g ai/ha,0.7 bushels/acre
"O=[N+]([O-])c1c(Cl)c(Cl)c(Cl)c(Cl)c1Cl [PCNB, pentachloronitrobenzene]",% Injury 3 DAA,[5]; 3 days after application,20%
same,% Injury 7 DAA,[5]; 7 days after application,100%
same,% Injury 10 DAA,[5]; 10 days after application,100%
same,% Injury 14 DAA,[5]; 14 days after application,100%
same,% Injury 28 DAA,[5]; 28 days after application (end of trial),~100%
"COc1cc(OC)nc(NC(=O)NS(=O)(=O)c2ncccc2OCC(F)(F)F)n1 [Trifloxysulfuron, trifloxysulfuron]",% Injury,[6]; 3-4 leaf,15%
same,% Injury,[6]; 5+ leaf,5%
same,% Injury,[6]; Cotyledon-2 leaf,18%
CCOC(=O)C1CC(=O)C(=C(O)C2CC2)C(=O)C1 (centres unmarked) [Trinexapac-ethyl],% Phytotoxicity,[1],10%
Prohexadione-calcium,% Phytotoxicity,[1],12%
